Publication PMC4450297, “Screening Active Compounds from Garcinia Species Native to China Reveals Novel Compounds Targeting the STAT/JAK Signaling Pathway” (BioMed Research International, 2015)

System: A498
Assay: Cell panel screen (CellTiter-Glo)
Type: cell-based, human
Settings: A498 (listed under Lung), 20 micromolar, 72 hrs
How it was run: (§1)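 Here, cancer cells cultured in medium with 10% FBS are treated for 72 h with each compound at 20 μM final. Viability is measured by ATP-dependent luminescence, and growth inhibition is calculated as a percentage against vehicle-only wells minus cell-free background.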

Compound | Percent Inhibition [%]
Bannaxanthone G [bn-21] | 60
CC(C)=CCc1c(O)cc2oc3cc(O)c(O)c(CCC(C)(C)O)c3c(=O)c2c1O [bn-16, Garcinone C] | 65

System: A704
Assay: Cell panel screen (CellTiter-Glo)
Type: cell-based, human
Settings: A704 (Kidney), 20 micromolar, 72 hrs
How it was run: as §1

Compound | Percent Inhibition [%]
Bannaxanthone G [bn-21] | 64
CC(C)=CCc1c(O)cc2oc3cc(O)c(O)c(CCC(C)(C)O)c3c(=O)c2c1O [bn-16, Garcinone C] | 62

System: BT-474
Assay: Cell panel screen (CellTiter-Glo)
Type: cell-based, human
Settings: BT-474 (Breast), 20 micromolar, 72 hrs
How it was run: as §1

Compound | Percent Inhibition [%]
Bannaxanthone G [bn-21] | 88
CC(C)=CCc1c(O)cc2oc3cc(O)c(O)c(CCC(C)(C)O)c3c(=O)c2c1O [bn-16, Garcinone C] | 83

System: BT-549
Assay: Cell panel screen (CellTiter-Glo)
Type: cell-based, human
Settings: BT-549 (Breast), 20 micromolar, 72 hrs
How it was run: as §1

Compound | Percent Inhibition [%]
Bannaxanthone G [bn-21] | 70
CC(C)=CCc1c(O)cc2oc3cc(O)c(O)c(CCC(C)(C)O)c3c(=O)c2c1O [bn-16, Garcinone C] | 74

System: Bel-7402
Assay: Cell panel screen (CellTiter-Glo)
Type: cell-based, human
Settings: Bel-7402 (Liver), 20 micromolar, 72 hrs
How it was run: as §1

Compound | Percent Inhibition [%]
Bannaxanthone G [bn-21] | 93
CC(C)=CCc1c(O)cc2oc3cc(O)c(O)c(CCC(C)(C)O)c3c(=O)c2c1O [bn-16, Garcinone C] | 91

System: C3A
Assay: Cell panel screen (CellTiter-Glo)
Type: cell-based, human
Settings: C3A (Liver), 20 micromolar, 72 hrs
How it was run: as §1

Compound | Percent Inhibition [%]
Bannaxanthone G [bn-21] | 62
CC(C)=CCc1c(O)cc2oc3cc(O)c(O)c(CCC(C)(C)O)c3c(=O)c2c1O [bn-16, Garcinone C] | 43

System: C8166
Assay: Cell panel screen (CellTiter-Glo)
Type: cell-based, human
Settings: C8166 (Leukemia), 20 micromolar, 72 hrs
How it was run: as §1

Compound | Percent Inhibition [%]
Bannaxanthone G [bn-21] | 90
CC(C)=CCc1c(O)cc2oc3cc(O)c(O)c(CCC(C)(C)O)c3c(=O)c2c1O [bn-16, Garcinone C] | 88

System: CCF-STTG1
Assay: Cell panel screen (CellTiter-Glo)
Type: cell-based, human
Settings: CCF-STTG1 (Brain), 20 micromolar, 72 hrs
How it was run: as §1

Compound | Percent Inhibition [%]
Bannaxanthone G [bn-21] | 68
CC(C)=CCc1c(O)cc2oc3cc(O)c(O)c(CCC(C)(C)O)c3c(=O)c2c1O [bn-16, Garcinone C] | 65

System: CW-2
Assay: Cell panel screen (CellTiter-Glo)
Type: cell-based, human
Settings: CW-2 (Colon), 20 micromolar, 72 hrs
How it was run: as §1

Compound | Percent Inhibition [%]
Bannaxanthone G [bn-21] | 99
CC(C)=CCc1c(O)cc2oc3cc(O)c(O)c(CCC(C)(C)O)c3c(=O)c2c1O [bn-16, Garcinone C] | 95

System: ChaGo-K-1
Assay: Cell panel screen (CellTiter-Glo)
Type: cell-based, human
Settings: ChaGo-K-1 (Lung), 20 micromolar, 72 hrs
How it was run: as §1

Compound | Percent Inhibition [%]
Bannaxanthone G [bn-21] | 95
CC(C)=CCc1c(O)cc2oc3cc(O)c(O)c(CCC(C)(C)O)c3c(=O)c2c1O [bn-16, Garcinone C] | 91

System: Colo 205
Assay: Cell panel screen (CellTiter-Glo)
Type: cell-based, human
Settings: Colo 205, 20 micromolar, 72 hrs
How it was run: as §1

Compound | Percent Inhibition [%]
Bannaxanthone G [bn-21] | 100
CC(C)=CCc1c(O)cc2oc3cc(O)c(O)c(CCC(C)(C)O)c3c(=O)c2c1O [bn-16, Garcinone C] | 97

System: HCC1395
Assay: Cell panel screen (CellTiter-Glo)
Type: cell-based, human
Settings: HCC1395 (Breast), 20 micromolar, 72 hrs
How it was run: as §1

Compound | Percent Inhibition [%]
Bannaxanthone G [bn-21] | 95
CC(C)=CCc1c(O)cc2oc3cc(O)c(O)c(CCC(C)(C)O)c3c(=O)c2c1O [bn-16, Garcinone C] | 94

System: HCC1569
Assay: Cell panel screen (CellTiter-Glo)
Type: cell-based, human
Settings: HCC1569 (Breast), 20 micromolar, 72 hrs
How it was run: as §1

Compound | Percent Inhibition [%]
Bannaxanthone G [bn-21] | 76
CC(C)=CCc1c(O)cc2oc3cc(O)c(O)c(CCC(C)(C)O)c3c(=O)c2c1O [bn-16, Garcinone C] | 81

System: HCC1599
Assay: Cell panel screen (CellTiter-Glo)
Type: cell-based, human
Settings: HCC1599 (Breast), 20 micromolar, 72 hrs
How it was run: as §1

Compound | Percent Inhibition [%]
Bannaxanthone G [bn-21] | 97
CC(C)=CCc1c(O)cc2oc3cc(O)c(O)c(CCC(C)(C)O)c3c(=O)c2c1O [bn-16, Garcinone C] | 94

System: HCC1937
Assay: Cell panel screen (CellTiter-Glo)
Type: cell-based, human
Settings: HCC1937 (Breast), 20 micromolar, 72 hrs
How it was run: as §1

Compound | Percent Inhibition [%]
Bannaxanthone G [bn-21] | 92
CC(C)=CCc1c(O)cc2oc3cc(O)c(O)c(CCC(C)(C)O)c3c(=O)c2c1O [bn-16, Garcinone C] | 80

System: HEC-1-A
Assay: Cell panel screen (CellTiter-Glo)
Type: cell-based, human
Settings: HEC-1-A (Uterus), 20 micromolar, 72 hrs
How it was run: as §1

Compound | Percent Inhibition [%]
Bannaxanthone G [bn-21] | 71
CC(C)=CCc1c(O)cc2oc3cc(O)c(O)c(CCC(C)(C)O)c3c(=O)c2c1O [bn-16, Garcinone C] | 61

System: HGC-27
Assay: Cell panel screen (CellTiter-Glo)
Type: cell-based, human
Settings: HGC-27 (Stomach), 20 micromolar, 72 hrs
How it was run: as §1

Compound | Percent Inhibition [%]
Bannaxanthone G [bn-21] | 84
CC(C)=CCc1c(O)cc2oc3cc(O)c(O)c(CCC(C)(C)O)c3c(=O)c2c1O [bn-16, Garcinone C] | 77

System: HPAF-II
Assay: Cell panel screen (CellTiter-Glo)
Type: cell-based, human
Settings: HPAF-II (Pancreas), 20 micromolar, 72 hrs
How it was run: as §1

Compound | Percent Inhibition [%]
Bannaxanthone G [bn-21] | 84
CC(C)=CCc1c(O)cc2oc3cc(O)c(O)c(CCC(C)(C)O)c3c(=O)c2c1O [bn-16, Garcinone C] | 75

System: HT-1197
Assay: Cell panel screen (CellTiter-Glo)
Type: cell-based, human
Settings: HT-1197 (Urinary bladder), 20 micromolar, 72 hrs
How it was run: as §1

Compound | Percent Inhibition [%]
Bannaxanthone G [bn-21] | 91
CC(C)=CCc1c(O)cc2oc3cc(O)c(O)c(CCC(C)(C)O)c3c(=O)c2c1O [bn-16, Garcinone C] | 85

System: J82
Assay: Cell panel screen (CellTiter-Glo)
Type: cell-based, human
Settings: J82 (Urinary bladder), 20 micromolar, 72 hrs
How it was run: as §1

Compound | Percent Inhibition [%]
Bannaxanthone G [bn-21] | 88
CC(C)=CCc1c(O)cc2oc3cc(O)c(O)c(CCC(C)(C)O)c3c(=O)c2c1O [bn-16, Garcinone C] | 85

System: M059J
Assay: Cell panel screen (CellTiter-Glo)
Type: cell-based, human
Settings: M059J (Brain), 20 micromolar, 72 hrs
How it was run: as §1

Compound | Percent Inhibition [%]
Bannaxanthone G [bn-21] | 94
CC(C)=CCc1c(O)cc2oc3cc(O)c(O)c(CCC(C)(C)O)c3c(=O)c2c1O [bn-16, Garcinone C] | 78

System: MSTO-211-H
Assay: Cell panel screen (CellTiter-Glo)
Type: cell-based, human
Settings: MSTO-211-H (Lung), 20 micromolar, 72 hrs
How it was run: as §1

Compound | Percent Inhibition [%]
Bannaxanthone G [bn-21] | 90
CC(C)=CCc1c(O)cc2oc3cc(O)c(O)c(CCC(C)(C)O)c3c(=O)c2c1O [bn-16, Garcinone C] | 93

System: NCI-H1623
Assay: Cell panel screen (CellTiter-Glo)
Type: cell-based, human
Settings: NCI-H1623 (Lung), 20 micromolar, 72 hrs
How it was run: as §1

Compound | Percent Inhibition [%]
Bannaxanthone G [bn-21] | 72
CC(C)=CCc1c(O)cc2oc3cc(O)c(O)c(CCC(C)(C)O)c3c(=O)c2c1O [bn-16, Garcinone C] | 67

System: NCI-H1694
Assay: Cell panel screen (CellTiter-Glo)
Type: cell-based, human
Settings: NCI-H1694 (Lung), 20 micromolar, 72 hrs
How it was run: as §1

Compound | Percent Inhibition [%]
Bannaxanthone G [bn-21] | 100
CC(C)=CCc1c(O)cc2oc3cc(O)c(O)c(CCC(C)(C)O)c3c(=O)c2c1O [bn-16, Garcinone C] | 99

System: NCI-H1770
Assay: Cell panel screen (CellTiter-Glo)
Type: cell-based, human
Settings: NCI-H1770 (Lung), 20 micromolar, 72 hrs
How it was run: as §1

Compound | Percent Inhibition [%]
Bannaxanthone G [bn-21] | 94
CC(C)=CCc1c(O)cc2oc3cc(O)c(O)c(CCC(C)(C)O)c3c(=O)c2c1O [bn-16, Garcinone C] | 87

System: NCI-H2347
Assay: Cell panel screen (CellTiter-Glo)
Type: cell-based, human
Settings: NCI-H2347 (Lung), 20 micromolar, 72 hrs
How it was run: as §1

Compound | Percent Inhibition [%]
Bannaxanthone G [bn-21] | 75
CC(C)=CCc1c(O)cc2oc3cc(O)c(O)c(CCC(C)(C)O)c3c(=O)c2c1O [bn-16, Garcinone C] | 73

System: NCI-H2405
Assay: Cell panel screen (CellTiter-Glo)
Type: cell-based, human
Settings: NCI-H2405 (Lung), 20 micromolar, 72 hrs
How it was run: as §1

Compound | Percent Inhibition [%]
Bannaxanthone G [bn-21] | 80
CC(C)=CCc1c(O)cc2oc3cc(O)c(O)c(CCC(C)(C)O)c3c(=O)c2c1O [bn-16, Garcinone C] | 73

System: NCI-H28
Assay: Cell panel screen (CellTiter-Glo)
Type: cell-based, human
Settings: NCI-H28 (Lung), 20 micromolar, 72 hrs
How it was run: as §1

Compound | Percent Inhibition [%]
Bannaxanthone G [bn-21] | 73
CC(C)=CCc1c(O)cc2oc3cc(O)c(O)c(CCC(C)(C)O)c3c(=O)c2c1O [bn-16, Garcinone C] | 71

System: NCI-H524
Assay: Cell panel screen (CellTiter-Glo)
Type: cell-based, human
Settings: NCI-H524 (Lung), 20 micromolar, 72 hrs
How it was run: as §1

Compound | Percent Inhibition [%]
Bannaxanthone G [bn-21] | 100
CC(C)=CCc1c(O)cc2oc3cc(O)c(O)c(CCC(C)(C)O)c3c(=O)c2c1O [bn-16, Garcinone C] | 98

System: Panc 03.27
Assay: Cell panel screen (CellTiter-Glo)
Type: cell-based, human
Settings: Panc 03.27 (Pancreas), 20 micromolar, 72 hrs
How it was run: as §1

Compound | Percent Inhibition [%]
Bannaxanthone G [bn-21] | 95
CC(C)=CCc1c(O)cc2oc3cc(O)c(O)c(CCC(C)(C)O)c3c(=O)c2c1O [bn-16, Garcinone C] | 86

System: RL95
Assay: Cell panel screen (CellTiter-Glo)
Type: cell-based, human
Settings: RL95 (Uterus), 20 micromolar, 72 hrs
How it was run: as §1

Compound | Percent Inhibition [%]
Bannaxanthone G [bn-21] | 88
CC(C)=CCc1c(O)cc2oc3cc(O)c(O)c(CCC(C)(C)O)c3c(=O)c2c1O [bn-16, Garcinone C] | 69

System: SW13
Assay: Cell panel screen (CellTiter-Glo)
Type: cell-based, human
Settings: SW13 (Adrenal gland), 20 micromolar, 72 hrs
How it was run: as §1

Compound | Percent Inhibition [%]
Bannaxanthone G [bn-21] | 92
CC(C)=CCc1c(O)cc2oc3cc(O)c(O)c(CCC(C)(C)O)c3c(=O)c2c1O [bn-16, Garcinone C] | 96

System: T47D
Assay: Cell panel screen (CellTiter-Glo)
Type: cell-based, human
Settings: T47D (Breast), 20 micromolar, 72 hrs
How it was run: as §1

Compound | Percent Inhibition [%]
Bannaxanthone G [bn-21] | 64
CC(C)=CCc1c(O)cc2oc3cc(O)c(O)c(CCC(C)(C)O)c3c(=O)c2c1O [bn-16, Garcinone C] | 62

System: T98G
Assay: Cell panel screen (CellTiter-Glo)
Type: cell-based, human
Settings: T98G (Brain), 20 micromolar, 72 hrs
How it was run: as §1

Compound | Percent Inhibition [%]
Bannaxanthone G [bn-21] | 77
CC(C)=CCc1c(O)cc2oc3cc(O)c(O)c(CCC(C)(C)O)c3c(=O)c2c1O [bn-16, Garcinone C] | 91

System: TCCSUP
Assay: Cell panel screen (CellTiter-Glo)
Type: cell-based, human
Settings: TCCSUP (Urinary bladder), 20 micromolar, 72 hrs
How it was run: as §1

Compound | Percent Inhibition [%]
Bannaxanthone G [bn-21] | 84
CC(C)=CCc1c(O)cc2oc3cc(O)c(O)c(CCC(C)(C)O)c3c(=O)c2c1O [bn-16, Garcinone C] | 88

System: ZR-75-30
Assay: Cell panel screen (CellTiter-Glo)
Type: cell-based, human
Settings: ZR-75-30 (Breast), 20 micromolar, 72 hrs
How it was run: as §1

Compound | Percent Inhibition [%]
Bannaxanthone G [bn-21] | 99
CC(C)=CCc1c(O)cc2oc3cc(O)c(O)c(CCC(C)(C)O)c3c(=O)c2c1O [bn-16, Garcinone C] | 94
